{"source": "PubChem BioAssay AID1645865", "about": "(Buhrlage Lab, Dana-Farber Cancer Institute and Novartis …, 2021)", "note": "Calls of active or inactive are those of the source.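 The calls were made as follows: active = maximal inhibition of the USP30 enzyme reaching 30% or more across the dose series; inactive = the rest.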"}
{"target": "Ubiquitin carboxyl-terminal hydrolase 30 (Homo sapiens) (UniProt Q70CQ3)", "sequence (Q70CQ3 whole entry, looked up)": "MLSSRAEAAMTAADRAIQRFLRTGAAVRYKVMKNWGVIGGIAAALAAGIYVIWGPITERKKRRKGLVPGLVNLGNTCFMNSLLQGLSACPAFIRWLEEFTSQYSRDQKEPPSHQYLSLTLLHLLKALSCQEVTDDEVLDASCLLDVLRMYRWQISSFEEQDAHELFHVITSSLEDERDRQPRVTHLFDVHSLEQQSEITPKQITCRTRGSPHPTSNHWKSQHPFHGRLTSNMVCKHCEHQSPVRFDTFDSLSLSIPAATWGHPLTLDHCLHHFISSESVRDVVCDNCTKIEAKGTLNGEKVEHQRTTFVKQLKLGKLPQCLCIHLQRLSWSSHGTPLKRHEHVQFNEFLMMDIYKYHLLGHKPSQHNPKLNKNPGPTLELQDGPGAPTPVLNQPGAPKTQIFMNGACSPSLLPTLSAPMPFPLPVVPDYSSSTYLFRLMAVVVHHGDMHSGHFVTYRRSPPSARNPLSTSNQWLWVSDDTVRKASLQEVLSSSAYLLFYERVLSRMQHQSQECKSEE", "assay": "ubiquitin-specific protease 30 DUB inhibitors, concentration-effect, biochemical, validation of primary actives (AID 1645865)", "conditions": "purified USP30, Ub-rhodamine cleavage, fluorescence, 2 h"}
{"molecule": "NS(=O)(=O)c1ccc(NC(=O)Cn2cnc3cc([N+](=O)[O-])ccc3c2=O)cc1", "IC50": "> 50 µM (inactive)"}
{"molecule": "CC1=C(c2ccc(F)cc2)S(=O)(=O)NC1=NCC(=O)Nc1ccc(F)cc1", "IC50": "21 µM"}
{"molecule": "Cc1nc(Nc2c3ccccc3nc3ccccc23)sc1C", "IC50": "> 50 µM (inactive)"}
{"molecule": "COc1ccc(NC(=O)C2c3ccccc3C(=O)N(C3CCCC3)C2c2cccs2)cc1OC", "note": "(centres undefined)", "IC50": "36.2 µM"}
{"molecule": "Cc1c(Cl)cccc1NC(=O)Cn1ccc2ccccc2c1=O", "IC50": "3.03 µM"}
{"molecule": "Cc1cc(C2CC(=O)Nc3c2c(C)nn3-c2nc3ccccc3[nH]2)c(C)s1", "note": "(centres undefined)", "IC50": "26.5 µM"}
{"molecule": "COc1ncccc1CN1CCn2c(Cn3cccn3)cnc2C1C", "note": "(centres undefined)", "IC50": "> 50 µM (inactive)"}
{"molecule": "O=C(NC1(O)C(=O)c2ccccc2C1=O)c1ccc(-c2csnn2)cc1", "IC50": "32.1 µM"}
{"molecule": "Cc1ccc(-n2c(-c3ccccc3)cn3c4c(=O)[nH]c(=O)n(C)c4nc23)cc1C", "IC50": "0.286 µM"}
{"molecule": "CCCCCC(=O)N1c2ccccc2NC2=C(C(=O)CC(c3ccc(C(C)(C)C)cc3)C2)C1c1ccncc1", "note": "(centres undefined)", "IC50": "2.28 µM"}
{"molecule": "Cc1cccc(CNC(=O)c2ccc(-c3nnc(-c4cccc(C)c4)o3)cc2)c1", "IC50": "5.57 µM"}
{"molecule": "CC(C(=O)NCc1ccc2c(c1)OCO2)N1CCN(c2ccc(O)cc2)CC1", "note": "(centres undefined)", "IC50": "> 50 µM (inactive)"}
{"molecule": "O=C(c1ccco1)N1CCN=C1SCc1ccccc1F", "IC50": "> 50 µM (inactive)"}
{"molecule": "O=C(Nc1cccc(Cl)c1)c1ncn2c1CNS(=O)(=O)c1ccccc1-2", "IC50": "12.3 µM"}
{"molecule": "COc1cccc(-n2ccc(=O)c(-c3nc(-c4ccccc4Cl)no3)n2)c1", "IC50": "> 50 µM (inactive)"}
{"molecule": "Cc1c(C(=O)c2ccccc2)c2ccccn2c1CCc1ccccn1", "IC50": "> 50 µM (inactive)"}
{"molecule": "COc1ccccc1CNC(=O)CCCCn1c(=O)c2ccccc2n(Cc2ccccc2C#N)c1=O", "IC50": "15.1 µM"}
{"molecule": "Nc1c(-c2ccc(Cl)cc2)cnc2cc(-c3ccc(Cl)c(Cl)c3)nn12", "IC50": "1.49 µM"}
{"molecule": "COc1ccc(NC(=O)C2CC(=O)Nc3cc(-c4ccccc4)nn32)cc1", "note": "(centres undefined)", "IC50": "22.5 µM"}
{"molecule": "COc1cccc(/C=C/C(=O)Nc2ccc(N3CCOCC3)cc2)c1OC", "IC50": "> 50 µM (inactive)"}
{"molecule": "O=C(Cn1ncc2c(N3CCCCCC3)ncnc21)NCc1ccccc1", "IC50": "> 50 µM (inactive)"}
{"molecule": "O=C(c1ccc(Cl)cc1)c1c[nH]cc1-c1c(F)cccc1Cl", "IC50": "19 µM"}
{"molecule": "CCC(=O)Nc1ccccc1-c1nc2ccccc2n(CC(=O)Nc2cc(OC)ccc2OC)c1=O", "IC50": "18.1 µM"}
{"molecule": "O=C(CCn1c(=O)c2sccc2n(CC(=O)OCc2ccccc2)c1=O)NCc1ccc2c(c1)OCO2", "IC50": "22.9 µM"}
{"molecule": "O=C(C1CCCN(S(=O)(=O)N2CCCCCC2)C1)N1CCN(c2ccccc2)CC1", "note": "(centres undefined)", "IC50": "> 50 µM (inactive)"}
{"molecule": "CCCCC/C=C/C=C/C(=O)OC1C(O)CC(c2ccc3c(c2O)C(=O)c2c(O)cc4cc(C)cc(O)c4c2C3=O)OC1C", "note": "(centres undefined)", "IC50": "> 50 µM (inactive)"}
{"molecule": "Cc1c(OCC(=O)NCC(=O)N2CCC3(O)CCCCC3C2)ccc2c3c(c(=O)oc12)CCCC3", "note": "(centres undefined)", "IC50": "23.7 µM"}
{"molecule": "CCc1nnc(NC(=O)c2nnn(-c3ccccc3Cl)c2C)s1", "IC50": "> 50 µM (inactive)"}
{"molecule": "CCOC(=O)c1cc2c(ccn2C)n1CC(=O)N1CCc2ccccc2C1", "IC50": "> 50 µM (inactive)"}
{"molecule": "Cc1c(-c2nc(-c3ccccc3Cl)no2)nnn1-c1cccc(F)c1", "IC50": "4.07 µM"}
{"molecule": "COC(=O)c1c(C)[nH]c(C(=O)C(C)OC(=O)CCC2CCCC2)c1C", "note": "(centres undefined)", "IC50": "> 50 µM (inactive)"}
{"molecule": "COc1ccc(OC)c(-c2cn3ccn(-c4ccc5c(c4)CCC5)c(=O)c3n2)c1", "IC50": "> 50 µM (inactive)"}
{"molecule": "CC(CCc1ccccc1)NC(=O)C(=O)c1cn(CC(=O)N2CCOCC2)c2ccccc12", "note": "(centres undefined)", "IC50": "> 50 µM (inactive)"}
{"molecule": "CCN1CCCC1CN(Cc1cc2cc(OC)ccc2[nH]c1=O)C(=O)NCc1ccccc1", "note": "(centres undefined)", "IC50": "> 50 µM (inactive)"}
{"molecule": "CCN(Cc1ccccc1)S(=O)(=O)c1ccc(C(=O)Nc2ccc3c(c2)OCCO3)cc1", "IC50": "> 50 µM (inactive)"}
{"molecule": "O=C(CSc1nnc(Cn2cnc3ccccc32)o1)Nc1ccc([N+](=O)[O-])cc1", "IC50": "19.3 µM"}
{"molecule": "Clc1cncc(Oc2nc(-c3cccnc3)nc3ccccc23)c1", "IC50": "2.09 µM"}
{"molecule": "CCOc1ccccc1C(=O)Oc1ccc2c(C)cc(=O)oc2c1", "IC50": "23.1 µM"}
{"molecule": "CN(C(=O)CSc1nnc(-c2cc3ccccc3n2C)o1)c1ccccc1", "IC50": "> 50 µM (inactive)"}
